Assay results reported in patent US11708391B2, “Rapaglutins, novel inhibitors of GLUT and use thereof” (The Johns Hopkins University, priority 2016, dated 2023).
Where two headings read alike, the source gives them in different places.

Experiments:
glucose transporters [1] = settings: CHO-K1; read-out: IC50 (cell line); cited from earlier work
glucose transporters [2] = settings: LNCaP; read-out: IC50 (cell line); cited from earlier work
glucose transporters [3] = settings: DU145; read-out: IC50 (cell line); cited from earlier work
glucose transporters [4] = settings: HL-60; read-out: IC50 (cell line); cited from earlier work
glucose transporters [5] = settings: SW620; read-out: IC50 (cell line); cited from earlier work
glucose transporters [6] = assay: 2-deoxy-D-[3H] glucose uptake in A549 cells; assay type: cell-based, human; settings: A549 cells
Method: FIGS. 2A-2D. Inhibition of Glucose Transport by A18 and E11. (a) Inhibition of 3-O-methyl¬D-[3H] glucose uptake in A549 cells by A18. (b) Inhibition of 3-O-methyl-D-[3H] glucose uptake in A549 cells by E11. (c) Inhibition of 2-deoxy-D-[3H] glucose uptake in A549 […] cells by A18. (d) Inhibition of 2-deoxy-D-[3H] glucose uptake in A549 cells by E11.
FIGS. 16A-16B. Inhibition of Glucose Transport by A18 and E11. Cytochalasin B (10 μM), A18 (3 μM), E11 (3 μM) and DMSO control were used to treated A549 cells for 10 min (a) or 1 min (b), then glucose uptake in the treated cells was measured at 1, 3, 10 and 30 min after the addition of 2-dexoy-D-[^3H] glucose.
Direct action on glucose transporters was measured by monitoring uptake of 3H-labeled 3-O-methylglucose, which is transported by glucose transporters but not metabolized further, allowing the assessment of initial rate of glucose uptake. […] Initial uptake can also be assessed by measuring the uptake of 3H-labeled 2-deoxy-D-glucose, which gets into the cell through glucose transporters and is phosphorylated by hexokinase but cannot be metabolized further due to the lack of oxygen at the second position.

glucose transporters [7] = settings: RCC4; read-out: IC50 (cell line); cited from earlier work
glucose transporters [8] = settings: A549; read-out: IC50 (cell line); cited from earlier work

CCOC(=O)[C@@]12CCCCC/C=C\1N(C(=O)c1cccc3ccccc13)C(=O)[C@H]2CC(=O)N1CCN(C(=O)c2ccco2)CC1 [Compound 11]
IC50 (glucose transporters [1]): 2000 nM

CC(CN1C(=O)S/C(=C/c2ccc(O)c(C(F)(F)F)c2)C1=O)(CC(F)(F)F)CC(F)(F)F [Cpd30]
IC50 (glucose transporters [2]): 2000 nM

CC(=O)CC(=O)Nc1ccc(Cl)c(C(F)(F)F)c1 [Fasentin]
IC50 (glucose transporters [3]): ~80000 nM

O=c1c(-c2ccc(O)cc2)coc2cc(O)cc(O)c12 [Genistein]
IC50 (glucose transporters [4]): ~12000 nM

O=C(CCc1ccc(O)cc1)c1c(O)cc(O)cc1O [Phloretin]
IC50 (glucose transporters [5]): > 10000 nM

CCC(C)(C)C(=O)C(=O)N1CCCC[C@H]1C(=O)O[C@H](CCc1ccc(OC)c(OC)c1)c1cccc(OCC(=O)O)c1 [SLF, reference compound]
antagonism of inhibitory effects of A18 or E11 on 2-deoxy-D-glucose uptake by FKBP ligands (glucose transporters [6]): significantly impaired the inhibitory activity of E11

CC(C)(C)c1ccc(S(=O)(=O)NCc2ccc(C(=O)Nc3cccnc3)cc2)cc1 [STF-31]
IC50 (glucose transporters [7]): ~1200 nM

O=C(Oc1cccc(F)c1OC(=O)c1cccc(O)c1)c1cccc(O)c1 [WZB117]
IC50 (glucose transporters [8]): ~500 nM
